# Experimental data published in patent US12371464B2, “Polypeptides and uses thereof” (MEDIMMUNE LIMITED, priority 2020, dated 2025).
# Numbered stars: 1 amine (or outer) side, 2 acyl side, 3 side chain; on linkers, the order of the positions; unused ones are H or OH. Bridge positions count the residues as written; N and C are the ends. Square brackets hold non-standard residues; d marks the D form. Side chains are listed from the residue outwards. Peptide text beside a SMILES is read from it. * marks the point of attachment. C18 diacid = O=C(O)CCCCCCCCCCCCCCCCC(=O)*; γGlu = O=C(O)[C@H](CCC(=O)[*:2])N[*:1]; αMeF = C[C@](N)(Cc1ccccc1)C(=O)O; Dab = NCC[C@H](N)C(=O)O; Aib = CC(C)(N)C(=O)O
# Assay: Thioflavin T fibrillation assay
# Type: physicochemical
# Details: 1 mg/mL in 25 mM sodium acetate buffer pH 4.0, 37° C., 6 days, orbital shaking; >144 h = no increase
# Text: Peptide aggregation that form fibrils is an indication of physical instability. Fibril formation in solution poses a significant risk for the stability of injectable peptide drug products. Thioflavin T (ThT) fibrillation assay is a useful tool to assess the aggregation kinetics of a peptide or protein under accelerated and stressed conditions that can be used to forecast the long-term viability of a compound in solution. ThT can selectively bind amyloid fibrils and the resultant complex emits strong fluorescence signal at 482 nm when excited at 450 nm (Anal Biochem. 1989 March; 177 (2): 244-9). Monitoring of the change in fluorescence signal is an established method to study the fibril forming potential of peptides and proteins. ThT (purchased from Sigma Aldrich) stock solution is prepared by dissolving the ThT powder in Milli-Q water and filtered to obtain a 0.25 mM solution. The concentration of the solution is measured at 412 nm using an extinction coefficient of 36 mM-1 cm-1. Test peptides were dissolved at 1 mg/mL in 25 mM sodium acetate buffer pH 4.0. 100 μL aliquot of peptide solution and 5 μL aliquot of ThT solution were placed in a clear bottom black fluorescence 96-well plate. 5 replicates of each test samples were placed in the same row of the plate. Buffer was placed in control wells for baseline correction. All empty wells were filled with water to prevent evaporation. The plate was sealed with aluminium seal and placed in fluorescence plate reader and incubated for 6 days at 37° C. with intermittent orbital shaking at 500 to 750 rpm. The fluorescence intensity was measured every 30 min using excitation at 444 nm and emission at 480 nm. The fibril forming potential of the test peptides was determined by measuring the average time taken to detect an increase in baseline corrected fluorescence intensity.
row,Structure (SMILES),Time taken to detect increase in fluorescence intensity
1,"CC[C@H](C)[C@H](NC(=O)[C@@H]1CCCN1C(=O)CNC(=O)[C@](C)(Cc1ccccc1)NC(=O)[C@H](CC(N)=O)NC(=O)[C@H](CC(N)=O)NC(=O)[C@H](CO)NC(=O)[C@H](CO)NC(=O)[C@H](Cc1c[nH]cn1)NC(=O)[C@@H](NC(=O)[C@H](CC(C)C)NC(=O)[C@H](Cc1ccccc1)NC(=O)[C@H](CC(N)=O)NC(=O)[C@H](C)NC(=O)[C@H](CC(C)C)NC(=O)[C@H](CCCNC(=N)N)NC(=O)[C@H](CCC(N)=O)NC(=O)[C@@H](NC(=O)[C@H](C)NC(=O)[C@@H]1CSSC[C@H](NC(=O)[C@@H](N)CCCCNC(=O)CC[C@H](NC(=O)CC[C@H](NC(=O)CCCCCCCCCCCCCCCCC(=O)O)C(=O)O)C(=O)O)C(=O)N[C@@H](CC(N)=O)C(=O)N[C@@H]([C@@H](C)O)C(=O)N[C@@H](C)C(=O)N[C@@H]([C@@H](C)O)C(=O)N1)[C@@H](C)O)C(C)C)C(=O)N[C@@H](CC(C)C)C(=O)N1CCC[C@H]1C(=O)N1CCC[C@H]1C(=O)N[C@H](C(=O)N[C@@H](CC(N)=O)C(=O)N[C@H](C(=O)NCC(=O)N[C@@H](CO)C(=O)N[C@@H](CCCNC(=N)N)C(=O)N[C@H](C(=O)N[C@@H](Cc1ccc(O)cc1)C(N)=O)[C@@H](C)O)C(C)C)[C@@H](C)O [Peptide 21, K(γE-γE-C18diacid)[CNTATC]ATQRLANFLVHSSNN(αMePhe)GPILPPTNVGSRTY-amide] (H-K([γGlu-γGlu-C18 diacid])CNTATCATQRLANFLVHSSNN[αMeF]GPILPPTNVGSRTY-NH2; disulfide 2-7; N-terminus assumed)",>144 h
2,"CC[C@H](C)[C@H](NC(=O)[C@@H]1CCCN1C(=O)CNC(=O)[C@H](Cc1ccccc1)NC(=O)[C@H](CC(N)=O)NC(=O)C(C)(C)NC(=O)[C@H](CO)NC(=O)[C@H](CO)NC(=O)[C@H](Cc1c[nH]cn1)NC(=O)[C@H](CCCNC(=N)N)NC(=O)[C@H](CC(C)C)NC(=O)[C@H](Cc1ccccc1)NC(=O)[C@H](CC(N)=O)NC(=O)[C@H](C)NC(=O)[C@H](CC(C)C)NC(=O)[C@H](CCCNC(=N)N)NC(=O)[C@H](CCC(N)=O)NC(=O)[C@@H](NC(=O)[C@H](C)NC(=O)[C@@H]1CSSC[C@H](NC(=O)[C@@H](N)CCCCNC(=O)CC[C@H](NC(=O)CCCCCCCCCCCCCCCCC(=O)O)C(=O)O)C(=O)N[C@@H](CC(N)=O)C(=O)N[C@@H]([C@@H](C)O)C(=O)N[C@@H](C)C(=O)N[C@@H]([C@@H](C)O)C(=O)N1)[C@@H](C)O)C(=O)N[C@@H](CC(C)C)C(=O)N1CCC[C@H]1C(=O)N1CCC[C@H]1C(=O)N[C@H](C(=O)N[C@@H](CC(N)=O)C(=O)N[C@H](C(=O)NCC(=O)N[C@@H](CO)C(=O)N[C@@H](CC(N)=O)C(=O)N[C@H](C(=O)N[C@@H](Cc1ccc(O)cc1)C(N)=O)[C@@H](C)O)C(C)C)[C@@H](C)O [Peptide 48, K(γE-C18diacid)[CNTATC]ATQRLANFLRHSS(Aib)NFGPILPPTNVGSNTY-amide] (H-K([γGlu-C18 diacid])CNTATCATQRLANFLRHSS[Aib]NFGPILPPTNVGSNTY-NH2; disulfide 2-7; N-terminus assumed)",>144 h
3,"CC[C@H](C)[C@H](NC(=O)[C@@H]1CCCN1C(=O)CNC(=O)[C@H](Cc1ccccc1)NC(=O)[C@H](CC(N)=O)NC(=O)C(C)(C)NC(=O)[C@H](CO)NC(=O)[C@H](CO)NC(=O)[C@H](Cc1c[nH]cn1)NC(=O)[C@@H](NC(=O)[C@H](CC(C)C)NC(=O)[C@H](Cc1ccccc1)NC(=O)[C@H](CC(N)=O)NC(=O)[C@H](C)NC(=O)[C@H](CC(C)C)NC(=O)[C@H](CCCNC(=N)N)NC(=O)[C@H](CCC(N)=O)NC(=O)[C@@H](NC(=O)[C@H](C)NC(=O)[C@@H]1CSSC[C@H](NC(=O)[C@H](CCCCN)NC(=O)[C@@H](N)CCCCNC(=O)CC[C@H](NC(=O)CC[C@H](NC(=O)CCCCCCCCCCCCCCCCC(=O)O)C(=O)O)C(=O)O)C(=O)N[C@@H](CC(N)=O)C(=O)N[C@@H]([C@@H](C)O)C(=O)N[C@@H](C)C(=O)N[C@@H]([C@@H](C)O)C(=O)N1)[C@@H](C)O)C(C)C)C(=O)N[C@@H](CC(C)C)C(=O)N1CCC[C@H]1C(=O)N1CCC[C@H]1C(=O)N[C@H](C(=O)N[C@@H](CCCNC(=N)N)C(=O)N[C@H](C(=O)NCC(=O)N[C@@H](CO)C(=O)N[C@@H](CC(N)=O)C(=O)N[C@H](C(=O)N[C@@H](Cc1ccc(O)cc1)C(N)=O)[C@@H](C)O)C(C)C)[C@@H](C)O [Peptide 70, K(γE-γE-C18diacid)K[CNTATC]ATQRLANFLVHSS(Aib)NFGPILPPTRVGSNTY-amide] (H-K([γGlu-γGlu-C18 diacid])KCNTATCATQRLANFLVHSS[Aib]NFGPILPPTRVGSNTY-NH2; disulfide 3-8; N-terminus assumed)",>144 h
4,"CC[C@H](C)[C@H](NC(=O)[C@@H]1CCCN1C(=O)CNC(=O)[C@](C)(Cc1ccccc1)NC(=O)[C@H](CC(N)=O)NC(=O)[C@H](CC(N)=O)NC(=O)[C@H](CO)NC(=O)[C@H](CO)NC(=O)[C@H](Cc1c[nH]cn1)NC(=O)[C@H](CCCNC(=N)N)NC(=O)[C@H](CC(C)C)NC(=O)[C@H](Cc1ccccc1)NC(=O)[C@H](CCC(=O)O)NC(=O)[C@H](C)NC(=O)[C@H](CC(C)C)NC(=O)[C@H](CCCNC(=N)N)NC(=O)[C@H](CCC(N)=O)NC(=O)[C@@H](NC(=O)[C@H](C)NC(=O)[C@@H]1CSSC[C@H](NC(=O)[C@@H](N)CCCCNC(=O)CC[C@H](NC(=O)CC[C@H](NC(=O)CCCCCCCCCCCCCCCCC(=O)O)C(=O)O)C(=O)O)C(=O)N[C@@H](CC(N)=O)C(=O)N[C@@H]([C@@H](C)O)C(=O)N[C@@H](C)C(=O)N[C@@H]([C@@H](C)O)C(=O)N1)[C@@H](C)O)C(=O)N[C@@H](CC(C)C)C(=O)N1CCC[C@H]1C(=O)N1CCC[C@H]1C(=O)N[C@H](C(=O)N[C@@H](CC(N)=O)C(=O)N[C@H](C(=O)NCC(=O)N[C@@H](CO)C(=O)N[C@@H](CC(N)=O)C(=O)N[C@H](C(=O)N[C@@H](Cc1ccc(O)cc1)C(N)=O)[C@@H](C)O)C(C)C)[C@@H](C)O [Peptide 11, K(γE-γE-C18diacid)[CNTATC]ATQRLAEFLRHSSNN(αMePhe)GPILPPTNVGSNTY-amide] (H-K([γGlu-γGlu-C18 diacid])CNTATCATQRLAEFLRHSSNN[αMeF]GPILPPTNVGSNTY-NH2; disulfide 2-7; N-terminus assumed)",>144 h
5,"CC[C@H](C)[C@H](NC(=O)[C@H](C)NC(=O)[C@@H]1CCCN1C(=O)[C@H](Cc1ccccc1)NC(=O)[C@H](CC(N)=O)NC(=O)[C@H](CCN)NC(=O)[C@H](CO)NC(=O)[C@H](CO)NC(=O)[C@H](Cc1c[nH]cn1)NC(=O)[C@@H](NC(=O)[C@H](CC(C)C)NC(=O)[C@H](Cc1ccccc1)NC(=O)[C@H](CC(N)=O)NC(=O)[C@H](C)NC(=O)[C@H](CC(C)C)NC(=O)[C@H](CCCNC(=N)N)NC(=O)[C@H](CCC(N)=O)NC(=O)[C@@H](NC(=O)[C@H](C)NC(=O)[C@@H]1CSSC[C@H](NC(=O)[C@@H](N)CCCCNC(=O)CC[C@H](NC(=O)CC[C@H](NC(=O)CCCCCCCCCCCCCCCCC(=O)O)C(=O)O)C(=O)O)C(=O)N[C@@H](CC(N)=O)C(=O)N[C@@H]([C@@H](C)O)C(=O)N[C@@H](C)C(=O)N[C@@H]([C@@H](C)O)C(=O)N1)[C@@H](C)O)C(C)C)C(=O)N[C@@H](CC(C)C)C(=O)N[C@@H](CO)C(=O)N1CCC[C@H]1C(=O)N[C@H](C(=O)N[C@@H](CC(N)=O)C(=O)N[C@H](C(=O)NCC(=O)N[C@@H](CO)C(=O)N[C@@H](CC(N)=O)C(=O)N[C@H](C(=O)N[C@@H](Cc1ccc(O)cc1)C(N)=O)[C@@H](C)O)C(C)C)[C@@H](C)O [Peptide 8, K(γE-γE-C18diacid)[CNTATC]ATQRLANFLVHSS(Dab)NFPAILSPTNVGSNTY-amide] (H-K([γGlu-γGlu-C18 diacid])CNTATCATQRLANFLVHSS[Dab]NFPAILSPTNVGSNTY-NH2; disulfide 2-7; N-terminus assumed)",7 h
6,"CC[C@H](C)[C@H](NC(=O)[C@@H]1CCCN1C(=O)CNC(=O)[C@](C)(Cc1ccccc1)NC(=O)[C@H](CC(N)=O)NC(=O)[C@H](CC(N)=O)NC(=O)[C@H](CO)NC(=O)[C@H](CO)NC(=O)[C@H](Cc1c[nH]cn1)NC(=O)[C@H](CCCNC(=N)N)NC(=O)[C@H](CC(C)C)NC(=O)[C@H](Cc1ccccc1)NC(=O)[C@H](CCC(=O)O)NC(=O)[C@H](C)NC(=O)[C@H](CC(C)C)NC(=O)[C@H](CCCNC(=N)N)NC(=O)[C@H](CCC(N)=O)NC(=O)[C@@H](NC(=O)[C@H](C)NC(=O)[C@@H]1CSSC[C@H](NC(=O)CC[C@H](NC(=O)CCCCCCCCCCCCCCCCC(=O)O)C(=O)O)C(=O)N[C@@H](CC(N)=O)C(=O)N[C@@H]([C@@H](C)O)C(=O)N[C@@H](C)C(=O)N[C@@H]([C@@H](C)O)C(=O)N1)[C@@H](C)O)C(=O)N[C@@H](CC(C)C)C(=O)N1CCC[C@H]1C(=O)N1CCC[C@H]1C(=O)N[C@H](C(=O)N[C@@H](CC(N)=O)C(=O)N[C@H](C(=O)NCC(=O)N[C@@H](CO)C(=O)N[C@@H](CC(N)=O)C(=O)N[C@H](C(=O)N[C@@H](Cc1ccc(O)cc1)C(N)=O)[C@@H](C)O)C(C)C)[C@@H](C)O [Peptide 10, C18diacid-γE-[CNTATC]ATQRLAEFLRHSSNN(αMePhe)GPILPPTNVGSNTY-amide] ({C18 diacid-γGlu}-CNTATCATQRLAEFLRHSSNN[αMeF]GPILPPTNVGSNTY-NH2; disulfide 1-6)",>144 h
